Tests used:
Format in all cases: cell-based
Tel-Jak2 = biological target: T1, Tel-Jak2 (Homo sapiens, UniProt O60674); assay: Cellular growth inhibition assay (MTT), Tel-Jak2 transformed BaF3 cell line; conditions: 40 hr incubation, read-out: Jak2: growth inhibitory activity (>50%) in transformed cell line Tel-Jak2
T1 construct: The regions encompassing the kinase domains of JAK2 (nucleotides 2994–3914); TEL (ETV6, human P41212) N-terminal part encoded by nucleotides 1-487 of TEL; expressed in transfected cells; host or cells: BaF3 (murine) bearing pTET-off, transfected with pTELJAK2 (pTRE2 vector); the other entry of the earlier key: ETV6 (P41212, Transcription factor ETV6)
T1 sequence (O60674 with tags, fused parts or gaps): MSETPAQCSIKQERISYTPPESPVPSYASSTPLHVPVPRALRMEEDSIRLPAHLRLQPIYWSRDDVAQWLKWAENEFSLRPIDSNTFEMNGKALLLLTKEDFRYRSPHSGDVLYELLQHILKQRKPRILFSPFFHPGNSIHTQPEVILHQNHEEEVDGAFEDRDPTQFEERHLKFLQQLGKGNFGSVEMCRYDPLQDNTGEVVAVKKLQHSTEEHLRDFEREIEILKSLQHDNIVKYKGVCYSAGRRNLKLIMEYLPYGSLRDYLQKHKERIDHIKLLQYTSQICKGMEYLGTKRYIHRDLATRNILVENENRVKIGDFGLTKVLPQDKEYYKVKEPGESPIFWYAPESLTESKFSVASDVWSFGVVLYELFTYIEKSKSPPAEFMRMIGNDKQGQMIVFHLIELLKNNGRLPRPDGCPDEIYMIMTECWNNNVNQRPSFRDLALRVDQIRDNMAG
From the text: (§1) The coding region encompassing nucleotides 1–487 of TELwas amplified by PCR using the oligonucleotides 5TEL (5′-GGAGGATCCTGATCTCTCTCGCTGTGAGAC-3′) and 3TEL (5′-AGGC GTCGACTTCTTCTTCATGGTTCTG-3′) and U937 mRNA as template. A BamHI site was present into the 5TEL Primer, a SalI site was incorporated into the 3TEL primer. The regions encompassing the kinase domains of JAK2 (nucleotides 2994–3914; JAK2F 5′-ACGC GTCGACGGTGCCTTTGAAGACCGGGAT-3′; JAK2R 5′-ATAGTTTAGCGGCCGCTCAGAATGAAGGTCATTT-3′) and JAK3 (nucleotides 2520–3469; JAK3F 5′-GAAGTCGACTATGCCTGCCAAGACCCCACGATCTT-3′; JAK3R 5′-GGATCTAGACTATGAAAAGGACAGGGAGTGGTGTTT-3′) were generated by PCR using Taq DNA Polymerase (Gibco/BRL) and U937 mRNA as template. A SalI site was incorporated into the forward primer of JAK2 and JAK3, a NotI site was incorporated into the JAK2 reverse primer and a Xba I site was added to the reverse primer of JAK3.
(§2) A TEL/Jak2 fusion was generated by digestion of the TELPCR product with BamHI/SalI, digestion of the JAK2 PCR product with SalI/NotI followed by ligation and subcloning into the mammalian expression Vector pTRE 2 (Clontech) digested with BamHI-NotI (pTELJAK2). For JAK3 SalI/NotI cleaved kinase domain PCR product was ligated with BamHI/SalI cleaved TELproduct followed by ligation into BamHI/NotI cleaved pTRE2 (pTELJAK3).
(§3) The growth factor dependent myelomonocytic cell line BaF3 bearing the pTET-off plasmid (Clontech) was transfected with either pTELJAK2 or pTELJAK3 and the cells selected for factor independent growth. BaF 3 wild type cells were cultured in DMEM 10% FCS, 10% WEHI 3B conditioned medium. BaF3 TELJAK cells were cultured in DMEM 10% Tet-System Approved FBS (without WEHI 3B conditioned medium).
(§4) Cell suspensions were prepared by harvesting cells from culture. (Cells used in this test should be in later log phase growth and high viability.) Cells were diluted in correct growth medium to 1.1×final concentration (from 50000 cell/mL to 200,000 cell/mL, depending on cell line).
(§5) Compounds to be tested were added (10 μL, 10×final concentration) to a flat bottom 96-well plate. The cellular suspension (90 μL per well) was added, and the plate incubated for 40 hr at 37° C., 5% CO2. MTT (20 μL per well, 5 mg/mL in PBS) was added and the plates were returned to the incubator for a further 6 hours. Lysis buffer (100 μL per well, 10% SDS, 0.01N HCl) was added and the plate stored in the incubator overnight. The plate was then read at 590 nm.

Tel-Jak3 = biological target: T2, Tel-Jak3 (Homo sapiens, UniProt P52333); assay: Cellular growth inhibition assay (MTT), Tel-Jak3 transformed BaF3 cell line; conditions: 40 hr incubation, read-out: Jak3: growth inhibitory activity (>50%) in transformed cell line Tel-Jak3
T2 construct: TEL (ETV6, human P41212) N-terminal part encoded by nucleotides 1-487 of TEL; expressed in transfected cells; host or cells: BaF3 (murine) bearing pTET-off, transfected with pTELJAK3 (pTRE2 vector); the other entry of the earlier key: ETV6 (P41212, Transcription factor ETV6)
T2 sequence (P52333 with tags, fused parts or gaps): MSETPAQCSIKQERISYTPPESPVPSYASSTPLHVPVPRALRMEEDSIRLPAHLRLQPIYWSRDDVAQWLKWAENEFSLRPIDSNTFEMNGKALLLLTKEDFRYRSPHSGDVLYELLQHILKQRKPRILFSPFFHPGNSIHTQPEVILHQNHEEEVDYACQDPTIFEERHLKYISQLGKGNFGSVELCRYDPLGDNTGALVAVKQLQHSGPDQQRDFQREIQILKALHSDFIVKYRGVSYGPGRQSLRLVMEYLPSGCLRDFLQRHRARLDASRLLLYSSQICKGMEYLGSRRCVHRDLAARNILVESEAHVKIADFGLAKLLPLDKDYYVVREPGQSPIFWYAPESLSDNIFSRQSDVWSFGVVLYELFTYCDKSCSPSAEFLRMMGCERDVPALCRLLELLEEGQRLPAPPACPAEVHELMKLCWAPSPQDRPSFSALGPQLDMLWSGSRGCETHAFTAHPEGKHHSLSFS
From the text: as §1, §2, §3, §4, §5

DU145 = assay: Cellular growth inhibition assay (MTT), DU145 cells; conditions: Homo sapiens, DU-145, 40 hr incubation, read-out: DU145: growth inhibitory activity
Procedure: as §4, §5

Row | SMILES | inhibition at 50 µM (Tel-Jak2) [%] | inhibition at 50 µM (Tel-Jak3) [%] | inhibition at 50 µM (DU145) [%]
1 | COc1cc(-c2cncc(NC(C)c3ccc(C(=O)NCc4cccnc4)cc3)n2)ccc1O (stereo not drawn) [Chemistry 372] | > 50 | > 50 | < 50
2 | CCN(CC)CCOc1ccc(C(C)Nc2cncc(-c3ccc(O)c(OC)c3)n2)cc1 (stereo not drawn) [Chemistry 285] | > 50 | > 50 | > 50
3 | COc1cc(-c2cncc(NC(C)c3ccc(NCc4cccnc4)cc3)n2)ccc1O (stereo not drawn) [Chemistry 320] | > 50 | > 50 | < 50
4 | COc1cccc([C@H](C)Nc2cncc(-c3ccc(O)c(OC)c3)n2)c1 [Chemistry 158] | > 50 | > 50 | > 50
5 | COc1cc(-c2cncc(Nc3cc(F)ccc3C)n2)ccc1O [Chemistry 144] | > 50 | > 50 | < 50
6 | COc1cc(-c2cncc(NC(C)c3ccc(C(=O)NCCO)cc3)n2)ccc1O (stereo not drawn) [Chemistry 374] | > 50 | > 50 | < 50
7 | CC[C@H](Nc1cncc(-c2ccc(O)c(OC)c2)n1)c1ccccc1 [Chemistry 119] | > 50 | > 50 | > 50
8 | COc1cc(-c2cncc(NC(C)c3ccc(-c4ccccc4)cc3)n2)ccc1O (stereo not drawn) [Chemistry 185] | > 50 | > 50 | < 50
9 | C[C@H](Nc1cncc(-c2ccc(NS(=O)(=O)c3ccccc3)cc2)n1)c1ccccc1 [Chemistry 226] | > 50 | > 50 | > 50
10 | COc1cc(-c2cncc(NC(C)c3ccc(-c4ccncc4)cc3)n2)ccc1O (stereo not drawn) [Chemistry 266] | > 50 | > 50 | > 50
11 | COc1cc(-c2cncc(NC(C)c3cccnc3)n2)ccc1O (stereo not drawn) [Chemistry 187] | > 50 | > 50 | > 50
12 | COc1cc(-c2cncc(N[C@@H](C)c3ccc4ccccc4c3)n2)ccc1O [Chemistry 155] | > 50 | > 50 | < 50
13 | COc1cc(-c2cncc(NC(C)c3ccc(NC(=O)c4ccncc4)cc3)n2)ccc1O (stereo not drawn) [Chemistry 279] | > 50 | > 50 | > 50
14 | COc1cc(-c2cncc(NC(C)c3ccc(C#N)cc3)n2)ccc1O (stereo not drawn) [Chemistry 303] | > 50 | > 50 | < 50
15 | COc1cc(-c2cncc(NC(C)c3ccc(-c4cccnc4)cc3)n2)ccc1O (stereo not drawn) [Chemistry 270] | > 50 | > 50 | > 50
16 | COc1cc(-c2cncc(Nc3ccc(F)cc3C)n2)ccc1O [Chemistry 156] | > 50 | > 50 | < 50
17 | C[C@H](Nc1cncc(-c2ccc(NS(C)(=O)=O)cc2)n1)c1ccccc1 [Chemistry 192] | > 50 | > 50 | > 50
18 | CNC(=O)c1ccc(C(C)Nc2cncc(-c3ccc(O)c(OC)c3)n2)cc1 (stereo not drawn) [Chemistry 370] | > 50 | > 50 | < 50
19 | C[C@H](Nc1cncc(-c2ccc(F)c(Cl)c2)n1)c1ccccc1 [Chemistry 174] | > 50 | > 50 | < 50
